Results published in patent US12115154B2, “Compounds for the modulation of proprotein convertase subtilisin/kexin type 9 (PCSK9)” (SRX Cardio, LLC, priority 2020, dated 2024).

How the values were obtained:
Male C57BL/6 mice [1] = assay: Liver panel (animal health) in high fat diet mice; type: in vivo
Description: (§1) A representative compound (Compound 1041) was tested for oral bioavailability and efficacy in mice. Male C57BL/6 mice were purchased from Taconic Biosciences (Rensselaer, New York) and housed under standard conditions with the exception of being provided a high fat diet (#TD.90221, Envigo, Madison, Wis.) and water ad libitum. Following 4 weeks of diet acclimation the animals were then dosed with compound or vehicle as control specimens. Compound readily dissolved at 1.5 mg/ml in a 1% Tween-80 aqueous solution with 10-15 minutes sonication. This solution was used at the 1.5 mg/ml concentration for oral (PO) dosing or further diluted with sterile saline for intravenous (IV) dosing.
To assess animal health following compound exposure, a liver panel (Test Code #60405) was tested by IDEXX BioAnalytics (North Grafton, Mass.). […] Also of note, AST and ALT levels in the liver panel were elevated in the PO vehicle, which is attributed to the high fat diet used in the study (Envigo, #TD.90221).

Male C57BL/6 mice [2] = assay: In vivo efficacy: serum LDL in high fat diet mice; details: for reduction in LDL: daily PO 15 mg/kg
Description: as §1
[…] Plasma samples were collected at 0.25, […], 1, 2, 3, 6, 8, 24, and 48 hours while liver specimens were collected at 8, 24, and 48 hours and drug concentration were measured by LC-MS/MS per standard protocols.
Serum lipid levels were measured using commercially available veterinary health testing services provided by IDEXX BioAnalytics (North Grafton, Mass.). Blood specimens were collected from the animals and the resulting serum was frozen and stored at −80° C. until analysis. Specimens were measured using the commercial service's standard procedures for the Rodent Lipid Panel (Test Code #6290).

[3] = In vivo PK in mice (IV and PO); details: male, C57BL/6, mouse, plasma, 3 mg/kg IV versus 15 mg/kg PO, read-out: oral bioavailability (F %)
Description: as §1
Test animals received a single dose at 3 mg/kg by IV or 15 mg/kg by PO while control animals received an equal volume of vehicle control by IV or PO, respectively. Plasma samples were collected at 0.25, […], 1, 2, 3, 6, 8, 24, and 48 hours while liver specimens were collected at 8, 24, and 48 hours and drug concentration were measured by LC-MS/MS per standard protocols.
In brief, blood was immediately centrifuged, and the resulting plasma was frozen and stored at −80° C. until analysis. […] Compound concentrations were determined by a liquid chromatography-mass tandem spectrometry (LC-MS/MS) per routine method (Quintana Discovery, Hayward, Calif.) following the standard protocol. […]

[4] = Dissolution in dosing solution; type: physicochemical; details: 1% Tween-80 aqueous solution, 10-15 minutes sonication
Description: as §1

PCSK9 = molecular target: T1, PCSK9 (Homo sapiens, UniProt Q8NBP7); assay: Biodesy Direct Binding Measurement (second harmonic generation); details: Biodesy Delta System
T1 construct: purchased Cayman Chemical 20631; host or cells: added to HepG2, HuH7, FL83B or shPCSK9 knock-down lines
Description: The compounds of the present disclosure may be tested for binding to, inhibition of, and/or modulation of PCSK9 activity according to the following protocols.
Direct binding can be measured using the commercially available Biodesy Delta System (BDS, http://www.biodesy.com/products/; accessed Aug. 1, 2018). The BDS is a laser-based approach that utilizes second harmonic generation from a labeled protein to detect ligand binding, the method of which is covered and described by U.S. Pat. Nos. 9,395,358 and 8,932,822, and has been commercialized by Biodesy Inc. (South San Francisco, Calif.).

[5] = daily 15 mg/kg PO, 72-hour group, versus vehicle control

T1 sequence (Q8NBP7 153-692): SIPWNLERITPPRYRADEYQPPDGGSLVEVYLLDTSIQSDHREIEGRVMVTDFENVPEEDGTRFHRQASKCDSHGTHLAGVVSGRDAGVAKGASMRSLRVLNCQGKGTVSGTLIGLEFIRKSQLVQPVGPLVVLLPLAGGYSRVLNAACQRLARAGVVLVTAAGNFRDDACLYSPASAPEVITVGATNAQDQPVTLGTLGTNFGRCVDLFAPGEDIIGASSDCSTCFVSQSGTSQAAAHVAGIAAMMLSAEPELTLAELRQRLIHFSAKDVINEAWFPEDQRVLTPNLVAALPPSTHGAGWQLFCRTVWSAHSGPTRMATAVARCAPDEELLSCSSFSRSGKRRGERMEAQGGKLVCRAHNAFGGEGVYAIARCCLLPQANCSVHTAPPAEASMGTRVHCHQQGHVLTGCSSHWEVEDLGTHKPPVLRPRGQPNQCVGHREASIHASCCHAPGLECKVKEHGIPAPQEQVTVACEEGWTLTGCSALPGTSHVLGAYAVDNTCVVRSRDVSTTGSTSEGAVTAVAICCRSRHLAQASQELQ

Row | ASHG (PCSK9) [%] | Structure (SMILES) | reduction in ALT levels (Male C57BL/6 mice [1]; [5]) [%] | reduction in AST levels (Male C57BL/6 mice [1]; [5]) [%] | liver panel toxicity (Male C57BL/6 mice [1]; three daily 15 mg/kg PO doses, 72 hours, versus PO vehicle) | reduction in LDL (Male C57BL/6 mice [2]; at 48 hours (dosed at t=0 and t=24 hours)) [%] | reduction in LDL (Male C57BL/6 mice [2]; at 72 hours (dosed at t=0, t=24, t=48 hours)) [%] | reduction in LDL relative to IV vehicle control group (Male C57BL/6 mice [2]; single 3 mg/kg IV dose, 48 hours after dosing) [%] | reduction in LDL relative to PO vehicle control group (Male C57BL/6 mice [2]; single 15 mg/kg PO dose, 48 hours after dosing) [%] | bioavailability [3] [%] | concentration readily dissolved [4] [mg/mL]
1 | – | Cc1cc(-c2ccc(F)cc2)ccc1C1CCCN(C2CCCC2)C1 (stereo not shown) [Compound 1.041, 1-cyclopentyl-3-(4′-fluoro-3-methyl-[1,1′-biphenyl]-4-yl)piperidine] | 77.7 | 72.1 | no overt toxicity | 32 | 50 | 19 | 32 | 44 | ≥ 1.5
2 | > 10 | Fc1ccc(-c2ccc(C3CCCN(CC4CC4)C3)cc2)cc1 (stereo not shown) [Compound 1.001, 1-(cyclopropylmethyl)-3-(4′-fluoro-[1,1′-biphenyl]-4-yl)piperidine] | – | – | – | – | – | – | – | – | –
